What was measured:
Assay in all cases: fitness (endpoint OD595 vs no drug) (fraction); higher = more growth
S. aureus DSM 20231 = tested on: S. aureus DSM 20231
In short: (§1)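 Plates with 384 wells were inoculated at OD595 0.01 using 30 µl of TSB, LB Lennox or CY, or 55 µl for S. pneumoniae. Incubation was at 37 °C, with OD595 measured every 30 min for 14 h. Fitness is the stationary-phase transition optical density over the robust mean of no-drug control wells, after first-reading background subtraction; it is capped at 1.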

S. pneumoniae D39V = tested on: S. pneumoniae D39V
In short: as §1

B. subtilis 168 = tested on: B. subtilis 168
In short: as §1

CC(=O)Oc1ccccc1C(=O)O [Acetylsalicylic acid] + O=C(O[C@@H]1Cc2c(O)cc(O)cc2O[C@@H]1c1cc(O)c(O)c(O)c1)c1cc(O)c(O)c(O)c1 [EGCG]
fitness
Details	partner 12.5 µg/mL	partner 25 µg/mL	partner 50 µg/mL
S. aureus DSM 20231, first compound 250 µg/mL	0.764	0.774	0.766
S. aureus DSM 20231, first compound 500 µg/mL	0.735	0.767	0.72
S. aureus DSM 20231, first compound 1000 µg/mL	0.616	0.621	0.598
S. pneumoniae D39V, first compound 250 µg/mL	0.955	0.935	0.914
S. pneumoniae D39V, first compound 500 µg/mL	0.927	0.929	0.851

CN(C)[C@@H]1C(O)=C(C(N)=O)C(=O)[C@@]2(O)C(O)=C3C(=O)c4c(O)ccc(Cl)c4[C@@](C)(O)[C@H]3C[C@@H]12 [Chlortetracycline] + CC1=C\[C@@H](O)CC(=O)Cc2nc(co2)C(=O)N2CCC=C2C(=O)O[C@H](C(C)C)[C@H](C)/C=C/C(=O)NC\C=C\1 [Virginiamycin M1]
fitness, one replicate
Details	first compound 0.006 µg/mL	first compound 0.012 µg/mL	first compound 0.024 µg/mL	first compound 0.048 µg/mL
S. aureus DSM 20231, partner 0.0625 µg/mL	0.776	–	–	–
S. aureus DSM 20231, partner 0.125 µg/mL	0.785	–	–	–
S. aureus DSM 20231, partner 0.25 µg/mL	0.809	–	–	–
S. aureus DSM 20231, partner 0.5 µg/mL	–	0.495	0.146	0.0554
S. aureus DSM 20231, partner 1 µg/mL	–	0.462	0.284	0.263
S. pneumoniae D39V, partner 0.15 µg/mL	–	0.955	0.895	0.825
S. pneumoniae D39V, partner 0.3 µg/mL	–	0.86	0.859	0.782
S. pneumoniae D39V, partner 0.5 µg/mL	–	0.889	0.89	0.848
S. pneumoniae D39V, partner 1 µg/mL	–	0.88	0.845	0.761

Details	fitness
B. subtilis 168, first compound 0.0475 µg/mL, partner 0.0625 µg/mL	0.874
B. subtilis 168, first compound 0.0475 µg/mL, partner 0.125 µg/mL	0.898
B. subtilis 168, first compound 0.0475 µg/mL, partner 0.25 µg/mL	0.87
B. subtilis 168, first compound 0.095 µg/mL, partner 0.0625 µg/mL	0.823
B. subtilis 168, first compound 0.095 µg/mL, partner 0.125 µg/mL	0.725
B. subtilis 168, first compound 0.095 µg/mL, partner 0.25 µg/mL	0.759
B. subtilis 168, first compound 0.19 µg/mL, partner 0.0625 µg/mL	0.55
B. subtilis 168, first compound 0.19 µg/mL, partner 0.125 µg/mL	0.547
B. subtilis 168, first compound 0.19 µg/mL, partner 0.25 µg/mL	0.568
S. aureus DSM 20231, first compound 0.012 µg/mL, partner 0.0625 µg/mL	0.565
S. aureus DSM 20231, first compound 0.012 µg/mL, partner 0.125 µg/mL	0.533
S. aureus DSM 20231, first compound 0.012 µg/mL, partner 0.25 µg/mL	0.567
S. aureus DSM 20231, first compound 0.024 µg/mL, partner 0.0625 µg/mL	0.191
S. aureus DSM 20231, first compound 0.024 µg/mL, partner 0.125 µg/mL	0.183
S. aureus DSM 20231, first compound 0.024 µg/mL, partner 0.25 µg/mL	0.188
S. aureus DSM 20231, first compound 0.048 µg/mL, partner 0.0625 µg/mL	0.0421
S. aureus DSM 20231, first compound 0.048 µg/mL, partner 0.125 µg/mL	0.0556
S. aureus DSM 20231, first compound 0.048 µg/mL, partner 0.25 µg/mL	0.0619
S. pneumoniae D39V, first compound 0.012 µg/mL, partner 2 µg/mL	0.817
S. pneumoniae D39V, first compound 0.024 µg/mL, partner 2 µg/mL	0.787
S. pneumoniae D39V, first compound 0.048 µg/mL, partner 2 µg/mL	0.74
S. pneumoniae D39V, first compound 0.375 µg/mL, partner 0.5 µg/mL	0.025
S. pneumoniae D39V, first compound 0.375 µg/mL, partner 1 µg/mL	0.0379
S. pneumoniae D39V, first compound 0.375 µg/mL, partner 2 µg/mL	0.0569
S. pneumoniae D39V, first compound 0.75 µg/mL, partner 0.5 µg/mL	0.0422
S. pneumoniae D39V, first compound 0.75 µg/mL, partner 1 µg/mL	0.0446
S. pneumoniae D39V, first compound 0.75 µg/mL, partner 2 µg/mL	0.0829
S. pneumoniae D39V, first compound 1.5 µg/mL, partner 0.5 µg/mL	0.0504
S. pneumoniae D39V, first compound 1.5 µg/mL, partner 1 µg/mL	0.0561
S. pneumoniae D39V, first compound 1.5 µg/mL, partner 2 µg/mL	0.0443

CN(C)[C@@H]1C(O)=C(C(N)=O)C(=O)[C@@]2(O)C(O)=C3C(=O)c4c(O)ccc(Cl)c4[C@@](C)(O)[C@H]3C[C@@H]12 [Chlortetracycline] + CC(=O)NC[C@H]1CN(c2ccc(N3CCOCC3)c(F)c2)C(=O)O1 [Linezolid]
one replicate
Details	fitness
B. subtilis 168, first compound 0.0475 µg/mL, partner 0.0625 µg/mL	0.751
B. subtilis 168, first compound 0.095 µg/mL, partner 0.0625 µg/mL	0.53
B. subtilis 168, first compound 0.19 µg/mL, partner 0.0625 µg/mL	0.213
S. aureus DSM 20231, first compound 0.006 µg/mL, partner 0.125 µg/mL	0.649
S. aureus DSM 20231, first compound 0.006 µg/mL, partner 0.25 µg/mL	0.59
S. aureus DSM 20231, first compound 0.006 µg/mL, partner 0.5 µg/mL	0.213
S. aureus DSM 20231, first compound 0.012 µg/mL, partner 1 µg/mL	0.0536
S. aureus DSM 20231, first compound 0.024 µg/mL, partner 1 µg/mL	0.0397
S. aureus DSM 20231, first compound 0.048 µg/mL, partner 1 µg/mL	0.0171

Details	fitness
B. subtilis 168, first compound 0.0475 µg/mL, partner 0.25 µg/mL	0.0413
B. subtilis 168, first compound 0.0475 µg/mL, partner 0.5 µg/mL	0.0371
B. subtilis 168, first compound 0.095 µg/mL, partner 0.25 µg/mL	0.0555
B. subtilis 168, first compound 0.095 µg/mL, partner 0.5 µg/mL	0.0371
B. subtilis 168, first compound 0.19 µg/mL, partner 0.125 µg/mL	0.0875
B. subtilis 168, first compound 0.19 µg/mL, partner 0.25 µg/mL	0.0467
B. subtilis 168, first compound 0.19 µg/mL, partner 0.5 µg/mL	0.0344
S. aureus DSM 20231, first compound 0.012 µg/mL, partner 0.125 µg/mL	0.516
S. aureus DSM 20231, first compound 0.012 µg/mL, partner 0.25 µg/mL	0.423
S. aureus DSM 20231, first compound 0.012 µg/mL, partner 0.5 µg/mL	0.135
S. aureus DSM 20231, first compound 0.024 µg/mL, partner 0.25 µg/mL	0.179
S. aureus DSM 20231, first compound 0.024 µg/mL, partner 0.5 µg/mL	0.0849
S. aureus DSM 20231, first compound 0.048 µg/mL, partner 0.125 µg/mL	0.141
S. aureus DSM 20231, first compound 0.048 µg/mL, partner 0.25 µg/mL	0.0729
S. aureus DSM 20231, first compound 0.048 µg/mL, partner 0.5 µg/mL	0.0288
S. pneumoniae D39V, first compound 0.012 µg/mL, partner 0.105 µg/mL	0.785
S. pneumoniae D39V, first compound 0.012 µg/mL, partner 0.21 µg/mL	0.685
S. pneumoniae D39V, first compound 0.012 µg/mL, partner 0.42 µg/mL	0.422
S. pneumoniae D39V, first compound 0.024 µg/mL, partner 0.105 µg/mL	0.739
S. pneumoniae D39V, first compound 0.024 µg/mL, partner 0.21 µg/mL	0.585
S. pneumoniae D39V, first compound 0.024 µg/mL, partner 0.42 µg/mL	0.251
S. pneumoniae D39V, first compound 0.048 µg/mL, partner 0.105 µg/mL	0.609
S. pneumoniae D39V, first compound 0.048 µg/mL, partner 0.21 µg/mL	0.387
S. pneumoniae D39V, first compound 0.048 µg/mL, partner 0.42 µg/mL	0.211
S. pneumoniae D39V, first compound 0.375 µg/mL, partner 0.2 µg/mL	0.0262
S. pneumoniae D39V, first compound 0.375 µg/mL, partner 0.4 µg/mL	0.028
S. pneumoniae D39V, first compound 0.375 µg/mL, partner 0.8 µg/mL	0.0276
S. pneumoniae D39V, first compound 0.75 µg/mL, partner 0.2 µg/mL	0.025
S. pneumoniae D39V, first compound 0.75 µg/mL, partner 0.4 µg/mL	0.04
S. pneumoniae D39V, first compound 0.75 µg/mL, partner 0.8 µg/mL	0.0503
S. pneumoniae D39V, first compound 1.5 µg/mL, partner 0.2 µg/mL	0.0494
S. pneumoniae D39V, first compound 1.5 µg/mL, partner 0.4 µg/mL	0.0334
S. pneumoniae D39V, first compound 1.5 µg/mL, partner 0.8 µg/mL	0.044

CN(C)[C@@H]1C(O)=C(C(N)=O)C(=O)[C@@]2(O)C(O)=C3C(=O)c4c(O)ccc(Cl)c4[C@@](C)(O)[C@H]3C[C@@H]12 [Chlortetracycline] + CCC[C@@H]1C[C@@H](C(=O)N[C@@H]([C@H]2O[C@H](SC)[C@H](O)[C@@H](O)[C@H]2O)[C@@H](C)O)N(C)C1 [Lincomycin]
one replicate
Details	fitness
B. subtilis 168, first compound 0.0475 µg/mL, partner 0.8 µg/mL	0.845
B. subtilis 168, first compound 0.0475 µg/mL, partner 1.6 µg/mL	0.761
B. subtilis 168, first compound 0.095 µg/mL, partner 0.8 µg/mL	0.692
B. subtilis 168, first compound 0.095 µg/mL, partner 1.6 µg/mL	0.5
B. subtilis 168, first compound 0.19 µg/mL, partner 0.8 µg/mL	0.0991
B. subtilis 168, first compound 0.19 µg/mL, partner 1.6 µg/mL	0.0613
S. aureus DSM 20231, first compound 0.006 µg/mL, partner 0.1 µg/mL	0.712
S. aureus DSM 20231, first compound 0.006 µg/mL, partner 0.2 µg/mL	0.483
S. aureus DSM 20231, first compound 0.006 µg/mL, partner 0.4 µg/mL	0.203

Details	fitness
B. subtilis 168, first compound 0.0475 µg/mL, partner 0.1 µg/mL	0.87
B. subtilis 168, first compound 0.0475 µg/mL, partner 0.2 µg/mL	0.862
B. subtilis 168, first compound 0.0475 µg/mL, partner 0.4 µg/mL	0.85
B. subtilis 168, first compound 0.095 µg/mL, partner 0.1 µg/mL	0.805
B. subtilis 168, first compound 0.095 µg/mL, partner 0.2 µg/mL	0.817
B. subtilis 168, first compound 0.095 µg/mL, partner 0.4 µg/mL	0.803
B. subtilis 168, first compound 0.19 µg/mL, partner 0.1 µg/mL	0.648
B. subtilis 168, first compound 0.19 µg/mL, partner 0.2 µg/mL	0.489
B. subtilis 168, first compound 0.19 µg/mL, partner 0.4 µg/mL	0.406
S. aureus DSM 20231, first compound 0.012 µg/mL, partner 0.1 µg/mL	0.472
S. aureus DSM 20231, first compound 0.012 µg/mL, partner 0.2 µg/mL	0.259
S. aureus DSM 20231, first compound 0.012 µg/mL, partner 0.4 µg/mL	0.0974
S. aureus DSM 20231, first compound 0.024 µg/mL, partner 0.1 µg/mL	0.233
S. aureus DSM 20231, first compound 0.024 µg/mL, partner 0.2 µg/mL	0.104
S. aureus DSM 20231, first compound 0.024 µg/mL, partner 0.4 µg/mL	0.0491
S. aureus DSM 20231, first compound 0.048 µg/mL, partner 0.1 µg/mL	0.0441
S. aureus DSM 20231, first compound 0.048 µg/mL, partner 0.2 µg/mL	0.0385
S. aureus DSM 20231, first compound 0.048 µg/mL, partner 0.4 µg/mL	0.0333
S. pneumoniae D39V, first compound 0.012 µg/mL, partner 0.215 µg/mL	0.802
S. pneumoniae D39V, first compound 0.012 µg/mL, partner 0.43 µg/mL	0.716
S. pneumoniae D39V, first compound 0.012 µg/mL, partner 0.86 µg/mL	0.268
S. pneumoniae D39V, first compound 0.024 µg/mL, partner 0.215 µg/mL	0.769
S. pneumoniae D39V, first compound 0.024 µg/mL, partner 0.43 µg/mL	0.666
S. pneumoniae D39V, first compound 0.024 µg/mL, partner 0.86 µg/mL	0.246
S. pneumoniae D39V, first compound 0.048 µg/mL, partner 0.215 µg/mL	0.636
S. pneumoniae D39V, first compound 0.048 µg/mL, partner 0.43 µg/mL	0.426
S. pneumoniae D39V, first compound 0.048 µg/mL, partner 0.86 µg/mL	0.222
S. pneumoniae D39V, first compound 0.375 µg/mL, partner 0.2 µg/mL	0.0295
S. pneumoniae D39V, first compound 0.375 µg/mL, partner 0.4 µg/mL	0.0454
S. pneumoniae D39V, first compound 0.375 µg/mL, partner 0.8 µg/mL	0.0386
S. pneumoniae D39V, first compound 0.75 µg/mL, partner 0.2 µg/mL	0.0393
S. pneumoniae D39V, first compound 0.75 µg/mL, partner 0.4 µg/mL	0.0417
S. pneumoniae D39V, first compound 0.75 µg/mL, partner 0.8 µg/mL	0.0458
S. pneumoniae D39V, first compound 1.5 µg/mL, partner 0.2 µg/mL	0.0273
S. pneumoniae D39V, first compound 1.5 µg/mL, partner 0.4 µg/mL	0.035
S. pneumoniae D39V, first compound 1.5 µg/mL, partner 0.8 µg/mL	0.0234

Reference: the supplement of paper PMC10627819
